Reference: article PMC9469500, “Targeting an Initiator Allergen Provides Durable and Expansive Protection against House Dust Mite Allergy” (ACS Pharmacology & Translational Science, 2022)
Values after ≈ are worked out from the molar mass of the structure shown.

What was measured:
[1] = system: rats sensitized to the HDM allergen extract; assay: HDM extract challenge in rats sensitized to the HDM allergen extract (BAL cells and mediators); format: in vivo, BN rats
Description: Control animals received saline vehicle treatment.

permeability (Papp) = format: in vitro ADME; conditions: not told
thermodynamic solubility = format: physicochemical; conditions: thermodynamic from solid
sensitized Balb/c mice = assay: HDM extract challenge in sensitized Balb/c mice (BAL flow cytometry); format: in vivo; conditions: HDM 10; i.t. 2 h prior to challenge; BAL 48 h
Procedure: Mice (female Balb/c 20 ± 2 g, Charles River) were isolator maintained in ventilated cages (Allentown IVC Racks, 36 Mini Isolator System, USA) that had been prepared for use by prior autoclaving. Environmental controls were 22–24 °C/60–80% relative humidity on a 12 h light/dark cycle. Animals were allowed ad libitum access to reverse osmosis-purified water and food (MF-18 laboratory rodent diet). Where prestudy serum samples were mandated, these were taken from the retro-orbital sinus on acclimatization in the isolator facility. Animals were randomly assigned to groups and sensitized to the HDM extract or treated with the vehicle on days 0, 7, and 14. […] Animals were anesthetized with propofol 48 h later (AstraZeneca, 10 mg/mL, 50 μL/mouse, i.v.), and terminal blood samples were taken from the retro-orbital sinus. BAL (3 × 0.5 mL aliquots of PBS) was performed, and the returns were combined for enumeration.
Flow cytometry (FACS) of BAL fluid was performed with a BD FACSAria instrument (Becton Dickinson Biosciences, USA) and the FACSDiva software. Analyses were performed by operators who were unaware of the sample identity. […]

[2] = HDM 1, dosed 2 or 4 h before challenge, BAL 48 h
[3] = HDM 10, single i.t. aerosol dose 2 h before (15 μg/kg compound 1, 46 μg/kg compound 2), BAL 48 h
[4] = stronger challenge HDM 10, 15 μg/kg i.t. aerosol 2 h prior

## CC(C)[C@H](NC(=O)[C@H](C)NC(=O)[C@@H](NC(=O)c1ccccc1)C(C)(C)C)C(=O)C(=O)NCc1ccccc1 [Compound 1, N-{(S)-1-[(S)-1-((S)-1-benzylaminooxalyl-2-methyl-propylcarbamoyl)-ethylcarbamoyl]-2,2-dimethyl-propyl}-benzamide]
[1]; HDM 1 (1 μg Der p 1), dosed i.t. aerosol 2 or 4 h before challenge, BAL 48 h
  BAL eosinophil responses: suppressed
[1]; [2]
  BAL neutrophil recruitment: No effect
  CCL-2 in BAL fluid: suppressed
  CCL-20 in BAL fluid: suppressed
  IL-13 in BAL fluid: suppressed
  IL-33 in BAL fluid: suppressed
[1]; HDM 1, dosed 2 h before challenge, BAL 48 h
  TSLP in BAL fluid: suppressed
[1]; HDM 1, dosed 4 h before challenge, BAL 48 h, 'except' = not suppressed
  TSLP in BAL fluid: except for TSLP
[1]; HDM 10 (10 μg Der p 1) i.t. aerosol, single i.t. aerosol dose 2 h before (15 μg/kg compound 1, 46 μg/kg compound 2), BAL 48 h
  changes in BAL cells after HDM challenge: attenuated
[1]; [3]
  BAL eosinophils after HDM challenge: eosinophil suppression
  BAL monocytes/macrophages after HDM challenge: No effects
  BAL neutrophil responses after HDM challenge: not significant
[1]; [4]
  IL-6 responses in BAL: unaffected
  IL-13 in BAL: inhibitory effects
  IL-33 in BAL: inhibitory effects
  TSLP in BAL: inhibitory effects
Permeability (Papp)
  Papp: 6.2 ×10⁻⁶ cm/s
Thermodynamic solubility
  solubility thermodynamic: 84 µM (≈ 43.9 µg/mL)
Sensitized Balb/c mice
  doses required for good activity against the HDM extract: > 0.01 mg/kg
